The source of these data is US20110217300A1, “Quinazolinone Compounds and Methods of Use Thereof” (priority 2007, published 2011).

The test system of one data set is A427. Kind of data set: MTS cell viability assay. It is filed as cell-based. Conditions: Homo sapiens, A-427, Lung Carcinoma. The method, then:
(§1) Cell viability was determined by measuring the activity of dehydrogenase enzymes in metabolically active cells using a tetrazolium compound, MTS. The assay was performed as described in Promega Technical Bulletin No. 169 (CellTiter 96 Aqueous Non-Radioactive Cell Proliferation Assay). Two human cancer cell lines were assayed (see, Table 1). Cells were maintained at 37° C. and 5% CO2 in DMEM media (4.5 g/L glucose) supplemented with 10% heat-inactivated FBS, 10 mM L-glutamine, and 10 mM Hepes pH 7.5. Briefly, cells were seeded in 96-well plates as set forth in Table 1 and incubated for 16-24 hours. Candidate compounds were serially diluted in DMSO, further diluted in cell culture media, and then added to cells (final DMSO concentration of 0.33%). Cells were incubated in the presence of candidate compound for 72 hours. MTS stock solution (MTS 2 gm/L, PMS […] in PBS) was added to the cells (final concentration MTS […] and PMS 7.67 mg/L) and incubated for 4 hours. SDS was added to a final concentration of 1.4% and absorbance at 490 nm was measured within two hours using a plate reader. […] GI50 values were given in Table 2 for the compounds listed. The Compound Numbers in Table 2 correspond to the numbers listed parenthetically in the Example titles. Where multiple measurements were made by different technicians, both values are given.
(§2) Cell viability was determined for N-(3-amino-propyl)-3-chloro-N—[(R)-1-(7-chloro-4-oxo-3-phenylamino-3,4-dihydro-quinazolin-2-yl)-but-3-ynyl]-2-fluoro-benzamide (compound I of Table 2). The cell viability assay of Example 105 was used. GI50 was determined using a variety of cell lines. Cells were plated at 100-5000 cells per well. At least 2 replicates were performed. Where multiple measurements were made by different technicians, both values are given.
On the technique in general: Tetrazolium dyes change colour on reduction, which living cells bring about.

A further data set has as its system LS411N. Kind of data set: MTS cell viability assay. The class given is cell-based. To be noted: Homo sapiens, LS-411N, colon. The method, then: as §1, §2
In another data set the test system is SNU-1. Kind of data set: MTS cell viability assay. To be noted: Homo sapiens, SNU1, Stomach. It is filed as cell-based. The method, then:
as §1, §2

The subject of another data set is HCT-116. The data set is described as follows: MTS cell viability assay. It is filed as cell-based. Conditions: Homo sapiens, colon. As for the experimental part:
as §1, §2

The subject of another data set is ASPC-1. Kind of data set: MTS cell viability assay. It is filed as cell-based. Conditions: Homo sapiens, ASPC1, pancreas. As for the experimental part: as §1, §2
In a further data set the test system is NCI-H1299. Kind of data set: MTS cell viability assay. It is filed as cell-based. To be noted: Homo sapiens, Non-small cell lung carcinoma. The method, then: as §1, §2
The next data set has as its system CAKI-1. Kind of data set: MTS cell viability assay. The class given is cell-based. Conditions: Homo sapiens, kidney. The method, then: as §1, §2
For the next data set, the system named is RT-4. The data set is described as follows: MTS cell viability assay. The class given is cell-based. Conditions: Human urinary bladder cell carcinoma. The method, then: as §1, §2
In a further data set the test system is SK-HEP-1. Kind of data set: MTS cell viability assay. Conditions: Homo sapiens, SK-HEP1, Liver adenocarcinoma. It is filed as cell-based. The method, then:
as §1, §2

The test system of the next data set is HEC1A. The data set is described as follows: MTS cell viability assay. It is filed as cell-based. To be noted: Homo sapiens, HEC-1-A, endometrial. The method, then:
as §1, §2

The subject of the next data set is MDA-MB-231. The data set is described as follows: MTS cell viability assay. It is filed as cell-based. Conditions: Breast adenocarcinoma. The method, then:
as §1, §2

The test system of a further data set is COLO-205. Kind of data set: MTS cell viability assay. It is filed as cell-based. Conditions: Homo sapiens, colon. As for the experimental part: as §1, §2
For the next data set, the system named is U937. Kind of data set: MTS cell viability assay. The class given is cell-based. To be noted: Homo sapiens, U-937, Monocyte Histocytic Lymphoma. As for the experimental part:
as §1, §2

Another data set deals with CFPPAC-1. Kind of data set: MTS cell viability assay. Conditions: Pancreasductal adenocarcinoma, cystic fibrosis. It is filed as cell-based. The method, then: as §1, §2
Another data set deals with SK-MEL-28. The data set is described as follows: MTS cell viability assay. It is filed as cell-based. Conditions: Malignant melanoma. As for the experimental part:
as §1, §2

The test system of a further data set is SW620. The data set is described as follows: MTS cell viability assay. The class given is cell-based. Conditions: Homo sapiens, SW-620, Colorectal adenocarcinoma. The method, then:
as §1, §2

The test system of the next data set is PLC/PRF/5. Kind of data set: MTS cell viability assay. To be noted: Homo sapiens, liver. The class given is cell-based. The method, then: as §1, §2
In data set [1] the test system is MDA-MB-231 tumor xenografts. Kind of data set: MDA-MB-231 tumor xenograft efficacy study. It is filed as in vivo, mice. As for the experimental part:
Six weeks old female athymic nude mice (NCR nu/nu) received from Charles River Laboratory, acclimated to the animal housing facility for one week before initiation of the study. Mice were housed in sterile cages of 4 each with autoclaved bedding, provided with autoclaved food and water ad libitum. Efficacy studies were performed in athymic mice bearing MDA-MB-231 tumor xenografts to determine the effect of compound on tumor growth. Tumor cells (5×10^6 MDA-MB-231 cells/animal) were inoculated subcutaneously on day 0. Tumor dimensions were measured three times weekly by a digital microcaliper, and tumor volumes were calculated as length×width^2/2. When tumors reached a volume of ˜100 mm^3, mice were randomized into groups and treated 3× weekly (Monday-Wednesday-Friday, followed by a 2-day dosing holiday) intraperitoneally. With either vehicle control or 3 mg/kg, 6 mg/kg and 12 mg/kg compound formulated in DMA/PEG400/water (4:8:88). Results are expressed as mean tumor volume±SE. To assess differences in tumor size between groups, student's t test was performed and significance was assessed for p values <0.05. Tumor size was evaluated periodically during treatment at the indicated days post-inoculation. Results are represented as the mean of tumor volume in mm^3±SE of several tumors (n=8) in function of the treatment period.
The in vivo activity of N-(3-amino-propyl)-3-chloro-N—[(R)-1-(7-chloro-4-oxo-3-phenylamino-3,4-dihydro-quinazolin-2-yl)-but-3-ynyl]-2-fluoro-benzamide was tested using xenograft models using cell lines as reported in Table 4. The experiments were performed using the general procedures and dosages of Examples 106-108.

For another data set, the system named is A375 xenograft. Kind of data set: Xenograft model. It is filed as in vivo, mice. Conditions: A375, Skin; procedures and dosages of Examples 106-108.

The term GI50 denotes the concentration at which growth is held to half of that of the control. A higher GI50 goes with lower sensitivity of the cells.

Each structure is given as a SMILES string.

On to `C#CC[C@H](c1nc2cc(Cl)ccc2c(=O)n1Nc1ccccc1)N(CCCN)C(=O)c1cccc(Cl)c1F` [Compound 1, N-(3-Amino-propyl)-3-chloro-N—[(R)-1-(7-chloro-4-oxo-3-phenylamino-3,4-dihydro-quinazolin-2-yl)-but-3-ynyl]-2-fluoro-benzamide], for which the GI50 in the data set with A427 amounted to 64 nM; in the data set with LS411N, 237 nM; with SNU-1, 552 nM; in the data set with HCT-116 it was 74 nM; in the data set with ASPC-1, 549 nM; in the data set on NCI-H1299, 549 nM. Moreover, the GI50 in the data set with CAKI-1 worked out at 2170 nM; in the data set with RT-4 it was 368 nM; in the data set on SK-HEP-1, 319 nM; with HEC1A, 316 nM; in the data set on MDA-MB-231 (Homo sapiens, MDA-MB-231, MDA-MB-231) it was 359 nM; in the data set with MDA-MB-231 (MDA-MB-231, listed as I), 249 nM. In addition, the GI50 in the data set on COLO-205 turned out to be 106 nM; in the data set with U937, 155 nM; with CFPPAC-1, 2080 nM; with SK-MEL-28 (Homo sapiens, SK-MEL-28, SK-MEL-28) it was 2160 nM; in the data set with SK-MEL-28 (SK-MEL-28, listed as I), 3130 nM; in the data set with SW620, 317 nM. Besides, halving of growth with PLC/PRF/5 (GI50) required 135 nM. In addition, in [1] (3 mg/kg, 6 mg/kg or 12 mg/kg intraperitoneally 3x weekly, MDA-MB-231 xenograft mice), the tolerability of doses entry is “well-tolerated”. In addition, the “tumor growth compared to the vehicle control group” value in [1] (3 mg/kg, 6 mg/kg or 12 mg/kg intraperitoneally 3x weekly, tumors ~100 mm^3 at start, FIG. 2) is given as “Significant reductions in tumor growth”. Moreover, the “Xenograft Outcome (approximate percent growth inhibition)” value in data set [1] (MDA-MB-231, Breast, procedures and dosages of Examples 106-108) was approximately 80%; in the data set with A375 xenograft, “small”.
